In patent US20230372425A1, “TOPICAL COMPOSITIONS CONTAINING MANUKA OIL AND PALMAROSA OIL FOR TREATING SKIN CONDITIONS” (Manuka Therapeutics Ltd., priority 2021, published 2023):

How the values were obtained:
MRSA = assay: MIC50 / MIC and MBC testing; assay type: cell-based, methicillin-resistant Staphylococcus aureus; details: Table 35 (Example 25); 1% ECMO or 1% ECMT, 0.05% CBD pure isolate
From the text: (§1) The MIC50 test evaluates the lowest concentration of a test substance that prevents 50% of the growth of bacteria or fungi. This is a measure of the antibacterial or anti-fungal activity of the test sample. MBC is the lowest concentration of an antibacterial agent required to kill a bacterium. Similarly, Minimum fungicidal concentration (MFC) is the lowest concentration of an antifungal agent required to kill a fungus or a yeast.
(§2) The disclosed topical compositions may be tested for MIC50 and MBC using publicly available testing criteria. For example, test samples of the desired active compound can be prepared and serially diluted to give 11 or more different concentrations covering, for example, a 1000-fold range. For example, the test samples may include 50%-0.1% of a stock test sample (e.g., stock samples disclosed in Table 1) that are combined with select bacteria and fungi and incubated over a prescribed period of time. The MIC50 is useful to determine the lowest concentration of each test sample (mixture of active materials) that inhibits 50% of the growth of the microbe as determined by measurement of OD650 nm using a Versa Max 96 well plate reader. […]
(§3) Additional data Minimum Inhibitory Concentration (MIC) data on East Cape manuka oil and β-triketones provide further context. […] MIC data is measured at the first sign of bacterial growth inhibition. […]

S. pyogenes = assay: MIC50 / MIC and MBC testing; assay type: cell-based, Streptococcus pyogenes; details: Table 35 (Example 25); 1% ECMO or 1% ECMT, 0.05% CBD pure isolate
From the text: as §1, §2, §3

[1] = system: gram positive bacteria S aureus, MRSA, S pyogenes, C. acnes; assay: Average MIC over gram positive bacteria (Example 25); assay type: cell-based
From the text: Cannabidiol (CBD) content in CBD oil can be highly variable. For this reason, pure CBD isolate was used in these examples. 1% ECMT or 1% ECMO were used in these examples. Since CBD oil contains 5-10% CBD, a concentration of 0.05% CBD pure isolate (equating to 0.5% to 1% whole CBD oil) was used in these tests.
The average MIC of CBD alone is 0.2 times that of ECMO-314. The average MIC of CBD alone is 0.1 times that of ECMT-314. […] The average MIC of ECMT alone is 0.8 times that of ECMT-314.

S. aureus = assay: MIC50 / MIC and MBC testing; assay type: cell-based, Staphylococcus aureus; details: Table 35 (Example 25); 1% ECMO or 1% ECMT, 0.05% CBD pure isolate
From the text: as §1, §2, §3

C. acnes = assay: MIC50 / MIC and MBC testing; assay type: cell-based, Cutibacterium acnes
From the text: as §1
The disclosed topical compositions may be tested for MIC50 and MBC using publicly available testing criteria. For example, test samples of the desired active compound can be prepared and serially diluted to give 11 or more different concentrations covering, for example, a 1000-fold range. For example, the test samples may include 50%-0.1% of a stock test sample (e.g., stock samples disclosed in Table 1) that are combined with select bacteria and fungi and incubated over a prescribed period of time. The MIC50 is useful to determine the lowest concentration of each test sample (mixture of active materials) that inhibits 50% of the growth of the microbe as determined by measurement of OD650 nm using a Versa Max 96 well plate reader. Measurement of cell concentration can be made at several time points.
Additional data Minimum Inhibitory Concentration (MIC) data on East Cape manuka oil and β-triketones provide further context. (Source: Plant & Food). MIC data is measured at the first sign of bacterial growth inhibition. These figures can be expected to be lower than MIC50 data, though this is not always the case. Published MIC data on palmarosa oil is also included for further context, In Vitro Antimicrobial and Antioxidant Activities of Some Cymbopogon Species in Essential Oil-Bearing Grasses—The genus Cymbopogon, Khunkitti, W. (2010) Chapter 6, Edited by A. Akhila., Medicinal and Aromatic Plants—Industrial Profiles, CRC Press Taylor & Francis Group. Example stock sample solutions of active mixtures that show promising results and are suitable for MIC50 and MBC testing are listed in Table 7. […]

Compound: C=C(C)[C@@H]1CCC(C)=C[C@H]1c1c(O)cc(CCCCC)cc1O [0.05% CBD isolate, cannabidiol]
- MIC (MRSA): 0.0125 % v/v
- MIC (S. pyogenes): 0.002 % v/v
- average MIC of ingredient alone, times that of ECMO-314 [1]: 0.2 times
- average MIC of ingredient alone, times that of ECMT-314 [1]: 0.1 times
- AVERAGE MIC ([1]; Table 35 (Example 25)): 0.018 % v/v
- MIC (S. aureus): 0.05 % v/v
- MIC of ingredient alone, times that of ECMT-314 (C. acnes; C. acnes considered on its own): 0.95 times
- MIC50, expressed as CBD (C. acnes; Table 24, studies with manuka oil β-triketones and CBD): 0.006% CBD (v/v) %
- MIC (C. acnes; Table 35 (Example 25), 1% ECMO or 1% ECMT, 0.05% CBD pure isolate): 0.006 % v/v
